# In patent US20190084968A1, “FUMAGILLOL HETEROCYCLIC COMPOUNDS AND METHODS OF MAKING AND USING SAME” (Zafgen, Inc., priority 2015, published 2019):
# Where a name gives a salt, the structure may show the parent alone.
# Experiments:
# [1] = test system: Sprague Dawley rats on high fat diet (DIO); assay: 11 day rat DIO model (body weight, food intake, hematology, blood chemistry); assay type: in vivo; settings: rat, in vivo, sc
# Text: The objective of this study design is to investigate the efficacy of disclosed compounds in an 11 day rat DIO model used to screen compounds for pharmacologic efficacy on endpoints related to obesity and metabolism. Effects on body weight, food intake, hematology and blood chemistries were the primary readouts of this study design. […] Rats were fed Research Diets D12451 (45% High Fat) and provided water ad libitum. Rats were received and housed in the facility for at least two or three weeks prior to start of test article administration. On Day −4 or −3, rats were randomized into study groups based on body weight and body weights were continued to be recorded daily for the duration of the study. Daily food intake was assessed starting on Study Day −2 by weighing the hopper including the food to avoid loss of food in transfer.
# (§1) Compounds were formulated into a 100% DMSO stock (at 9 mg/mL) prior to the start, and further diluted into the target working concentration using the vehicle of 10% DMSO in water. Prior to test article administration, starting on Day −3 a dosing acclimation occured with all animals receiving a subcutaneous injection of vehicle (10% DMSO) only for 3 days. Starting on Day 1, test compounds or vehicle were administered based on individual body weight, subcutaneously, once a day for 11 days. All animals were sacrificed on Day 11, approximately 2 hours following the final dosing on Day 11. After sacrifice, whole blood was collected and analyzed for hematology and blood chemistry parameters.
# (§2) Compounds were tested vs. vehicle at various doses (1.0, 0.5, 0.3, 0.1, 0.03 mpk sc (mg per kg animal weight delivered subcutaneously), and the results are shown in Table 2 below.
# [2] = test system: Diet Induced Obese (DIO) C57BL/6 mice; assay: 10 day DIO mouse model (body weight, food intake, hematology, blood chemistry); assay type: in vivo; settings: mouse, in vivo, sc, 0.3 mg/kg
# Text: The objective of this study design was to investigate the efficacy of disclosed compounds in a 10 day DIO mouse model. Effects on body weight, food intake, hematology and blood chemistry were the primary readouts of this study design. […] Mice were fed Research Diets D12492 (60% Kcal fat, 20% Kcal carbohydrate and 20% protein) and provided water ad libitum. DIO mice were received and housed in the facility for approximately two weeks prior to the start of test article administration. On Day −4 or −3, mice were randomized into study groups based on body weight and body weights were continued to be recorded daily for the duration of the study. Daily food intake was assessed starting on Study Day −2 by weighing of the food with hopper together to avoid loss of food in transfer.
# as §1, with “for 10” for “for 11”, “All mice” for “All animals”, “11, 24” for “11, approximately 2”, “Day 10.” for “Day 11.”
# as §2
# [3] = test system: embryo/fetal development in pregnant Sprague Dawley rats; settings: 6 mpk subcutaneously once every three days, Gestation Days 6-18, pregnant rats
# Method: The objective of this study design was to evaluate the potential effects of disclosed compounds on embryo/fetal development when given subcutaneously to pregnant rats once every three days during the critical period of organogenesis (Gestation Days 6-18). Female, Sprague Dawley rats, approximately 10 weeks of age, time bred, were ordered from a certified vendor and housed individually housed in stainless steel cages suspended over flush pans, on a 12-hour light-dark cycle (0700-1900) at 20-26° C. and 30-70% humidity. Rats were fed a standard rodent chow and provided water ad libitum. Rats were received and housed in the facility for a period of approximately 1 to 2 days.
# Compounds were formulated using 100% DMSO mixed in Sterile Water for Injection, resulting in 2% DMSO solution in water. If necessary, due to limited solubility of a test article, a higher percentage of DMSO solution in water was used. Groups of 8 mated and presumed pregnant female rats were given subcutaneous doses of vehicle or test article, once every three days, beginning on Gestation Day 6 and ending on Gestation Day 18 (Days 6, 9, 12, 15, and 18), maintained two more days, and then euthanized and necropsied on Gestation Day 20. Body weights was recorded for all animals on Gestation Days 5 (purpose of randomization), 6, 9, 12, 15, 18, and 20 (scheduled euthanasia). Food consumption by weight was recorded on Gestation Days 6, 9, 12, 15, 18, and 20 (scheduled termination).
# At necropsy, the dams were examined visually for external abnormalities including palpable masses. The abdominal, thoracic, and cranial cavities and their contents were examined for abnormalities and findings will be recorded. The reproductive tract were examined to record the number of ovarian corpora lutea, the number and location of uterine implantation sites noting the position of the cervix, and the number of early resorptions, late resorptions, live fetuses, and dead fetuses. For dead fetuses and late resorptions, crown-to-rump length and weight were recorded, if possible, and the fetus was discarded. For viable fetuses, weight, sex, and grossly visible external abnormalities were recorded.
# recombinant human MetAP2 = target: T1, recombinant human MetAP2 (Homo sapiens, UniProt P50579); assay: Recombinant human MetAP2 enzyme inhibition assay (MAS peptide / amino acid oxidase / Amplex UltraRed); assay type: biochemical
# T1 construct: Flag; made in house
# T1 sequence (P50579 whole entry): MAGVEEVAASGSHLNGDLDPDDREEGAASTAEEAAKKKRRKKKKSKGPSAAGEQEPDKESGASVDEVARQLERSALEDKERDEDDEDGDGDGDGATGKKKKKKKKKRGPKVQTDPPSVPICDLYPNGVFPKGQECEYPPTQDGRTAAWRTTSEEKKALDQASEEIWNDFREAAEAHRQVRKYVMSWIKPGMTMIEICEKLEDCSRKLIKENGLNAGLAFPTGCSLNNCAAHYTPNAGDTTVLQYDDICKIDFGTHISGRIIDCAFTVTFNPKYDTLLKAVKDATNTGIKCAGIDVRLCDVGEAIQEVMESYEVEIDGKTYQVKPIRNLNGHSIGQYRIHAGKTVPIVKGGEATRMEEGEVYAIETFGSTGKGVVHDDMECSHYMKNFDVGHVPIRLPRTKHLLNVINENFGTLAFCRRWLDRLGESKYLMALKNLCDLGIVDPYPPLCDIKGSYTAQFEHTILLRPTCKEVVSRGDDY
# Method: Compounds are tested for their capacity to inhibit recombinant human MetAP2 activity using the following assay.
# Flag tagged Human recombinant MetAP2 expressed and isolated for use as the enzyme source. 10 mM stock solutions of compounds were prepared in 100% DMSO and further diluted in 100% DMSO required concentration to 1 mM stocks. The stock compound solutions and DMSO vehicle controls were diluted to target final compound concentrations using assay buffer to a final concentration of 50 mM HEPES containing 100 mM NaCl, pH adjusted to 7.5. The MAS peptide was formulated to a 7.5 mM stock in distilled water and prior to use further diluted 1:4. […] 40 μl of enzyme was mixed with 100 μl of MnCl2 then further diluted in assay buffer to a final concentration of 16 μg/ml. To test for compound effect on MetAP2 enzyme activity, 5 μl of test compound, 10 μl of MAS substrate/amino acid oxidase mixture, 10 μl of MetAP2 was added to test wells in a 384 well black plate with blank wells containing no enzyme, replaced with 10 μl of assay buffer. All compounds were tested in duplicate on two occasions on the same day.
# The plate was sealed with a TopSeal A cover and mixed briefly on an orbital mixer at 900 rpm. The plate was incubated for a further 25 minutes at 25° C. A 5× stock of Amplex buffer was prepared (0.25M sodium phosphate, pH 7.4) and stored at 4° C. When preparing for use the stock was diluted with distilled water. […] 25 μl detection reagent was added to each well of the test plate, which was re-sealed and mixed briefly on an orbital shaker. […] At the end of the MetAP2 incubation 25 μl Amplex/HRP mixture per well was added and the plate read plate on a plate reader.
SMILES,DIO Rat 11-day weight loss vs vehicle at indicated dose ([1]; 0.3 mg/kg) [%],DIO Rat 11-day weight loss vs vehicle at indicated dose ([1]; 1 mg/kg) [%],DIO Mouse 10-day weight loss vs vehicle at indicated dose [2] [%],Rat Embryofetal @6 mpk [3],IC50 (recombinant human MetAP2) [nM]
"CO[C@@H]1[C@H](OC(=O)N2CC(CCN3CC(O)C3)C2)CC[C@]2(CO2)[C@H]1[C@@]1(C)O[C@@H]1CC=C(C)C [Example 6, (3R,4S,5S,6R)-5-methoxy-4-((2R,3R)-2-methyl-3-(3-methylbut-2-enyl)oxiran-2-yl)-1-oxaspiro[2.5]octan-6-yl 3-(2-(3-hydroxyazetidin-1-yl)ethyl)azetidine-1-carboxylate formate]",0.8,4.6,11.8,Positive,< 50
"CO[C@@H]1[C@H](OC(=O)N2CC(CCN3CC(C)(O)C3)C2)CC[C@]2(CO2)[C@H]1[C@@]1(C)O[C@@H]1CC=C(C)C [Example 9, (3R,4S,5S,6R)-5-methoxy-4-((2R,3R)-2-methyl-3-(3-methylbut-2-enyl)oxiran-2-yl)-1-oxaspiro[2.5]octan-6-yl 3-(2-(3-hydroxy-3-methylazetidin-1-yl)ethyl)azetidine-1-carboxylate formate]",5.5,4.8,7.4,Positive,< 50
"CO[C@@H]1[C@H](OC(=O)N2CC(CCN3CC4C(C3)C4(F)F)C2)CC[C@]2(CO2)[C@H]1[C@@]1(C)O[C@@H]1CC=C(C)C (stereo partly drawn) [Example 22, (3R,4S,5S,6R)-5-methoxy-4-((2R,3R)-2-methyl-3-(3-methylbut-2-enyl)oxiran-2-yl)-1-oxaspiro[2.5]octan-6-yl 3-(2-(6,6-difluoro-3-azabicyclo[3.1.0]hexan-3-yl)ethyl)azetidine-1-carboxylate formate]",–,–,14,Negative,< 50
